Test results: patent US20170216329A1, “Ceramide-Rubusoside Nanomicelles and Their Use in Cancer Therapy” (Board of Supervisors of Louisiana State University and …, priority 2014, published 2017)

How the values were obtained:
[1] = tested on: OVCAR3 ovarian cancer cells (p53 R248 missense mutation); assay: Cell viability after 72 hours, OVCAR3; format: cell-based, Human
Protocol: We examined the effect of Ceramide-RUB nanomicelles on p53 restoration in cancer cell models. Human OVCAR3 ovarian cancer cells carry a p53 R248 missense mutation, and are resistant to many anticancer drugs. […] FIG. 3 depicts cell viability (as a percentage of control) after treatment for 72 hours with varying concentrations of C6-Ceramide. FIG. 4 depicts cell viability (as a percentage of control) after treatment for 72 hours with varying concentrations of C6-Ceramide-Rubusoside. FIG. 5 depicts cell viability (as a percentage of control) after treatment for 72 hours with varying concentrations of Rubusoside.

[2] = tested on: A2780 ovarian cancer cells (p53 wild-type); assay: Cell viability after 72 hours, A2780; format: cell-based
[3] = tested on: p53, Bax and p21 in the small intestine; assay: p53 restoration in heterozygous p53R172H/+ transgenic mice (small intestine); format: in vivo; settings: 1 mg/kg, i.p., every 3 days for 6 days; vs. saline
Text: We examined the effects of Cer on restoring wt p53 expression in p53 missense transgenic mice. The experimental animals were heterozygous 129S4-Trp53^tm2.1Tyj transgenic mice, which carry the mutation p53^R172H/+, and have a genetic predisposition to cancer. (Doyle et al., 2010; Olive et al., 2004; Yu et al., 2012) These mice were generously provided by the NCI Mouse Repository (Rockville, Md.). We analyzed the genotypes of offspring by PCR analysis of DNA from blood collected from the tail vein. Heterozygous (HTZ) p53^R172H/+ mice were treated with C6-Cer or C6-Cer-RUB (1 mg/kg, i.p., every 3 days for 6 days).

[4] = tested on: protein phosphatase 1 (PP1); assay: PP1 activity in NCI/ADR-RES cells; format: cell-based, human
Protocol: Cer can modulate gene expression, not only by activating transcription, but also by determining protein isoform. […] We assessed the roles of protein phosphatase 1 (PP1) and serine/arginine-rich splicing-factor 1 SRSF1 in Cer-induced wt p53 restoration via PP1 and SRSF1 in NCI/ADR-RES human ovarian cancer cells. […] Cells were pretreated with CalA (5 nM) for 4 hr, and then with either MBO-asGCS (MBO-as, 100 nM) or C6-Cer (2.5 μM) for 72 hr. FIG. 2 depicts PP1 activity in NCI/ADR-RES cells with various treatments. […] These increases were correlated with increases in wt p53 mRNA (exon 5) and pp53 (as assessed by RT-PCR amplification, data not shown).

[5] = tested on: wt p53 (phosphorylated-Ser15); settings: cited from earlier work
[6] = tested on: HTZ SW48/TP53+/− and parental SW48 (wt p53) cells; assay: Sensitivity of SW48 cells to Cers; format: cell-based, human; settings: both cell lines, data not shown
[7] = Preliminary oral toxicity study in normal mice; format: in vivo; settings: up to 4 g daily per kg body mass, orally, two weeks
Protocol: (§1) Rubusoside (RUB) is a steviol glycoside. Steviol glycosides, extracted from the leaves of various plants, are often used as natural food sweeteners. […] Rubusoside is generally recognized as safe (GRAS) as a food additive for the general public according to the World Health Organization (WHO) (2005). A WHO expert panel has set 760 mg/kg/day RUB as the no-observed-effect level (NOEL) (2005). Thus there is ample tolerance for avoiding toxicity when rubusoside is employed in the present invention.

[8] = WHO intake limits (ADI, NOEL); settings: converted from the steviol ADI
Protocol: as §1

[9] = set by WHO expert panel (2005); cited from earlier work

CCCCCCCCCCCCC/C=C/[C@@H](O)[C@H](CO)NC(=O)CCCCC [C6-Cer, C6-Ceramide]
IC50 ([1]; OVCAR3 cells, 72 hours): 12.5 µM
resistance of OVCAR3 relative to A2780 cells ([1]; ratio of IC50 values): 12 times
IC50 [2]: 0.9 µM
protein level of Bax in the small intestine [3]: significantly increased
protein level of p53 in the small intestine [3]: significantly increased
PP1 activity ([4]; MBO-asGCS 100 nM or C6-Cer 2.5 μM, 72 hr): significantly increased
restoration of p53 activity ([5]; exogenous, Liu et al., 2011): restored p53 activity

CCCCCCCCCCCCC/C=C/[C@@H](O)[C@H](CO)NC(=O)CCCCCCCCCCCCCCCCC [C18-Cer]
relative sensitivity of cells to Cers [6]: more sensitive to C18-Cer than C6-Cer

CCCC[C@@H](C)[C@@H](OC(=O)C[C@@H](CC(=O)O)C(=O)O)[C@H](C[C@@H](C)C[C@H](O)CCCC[C@@H](O)C[C@H](O)[C@H](C)N)OC(=O)C[C@@H](CC(=O)O)C(=O)O [Fumonisin B1]
effect on p53 restoration by MBO-asGCS ([5]; inhibitor of Cer synthase): inhibited p53 restoration

C=C1C[C@@]23CC[C@H]4[C@@](C)(CCC[C@@]4(C)C(=O)O[C@@H]4O[C@H](CO)[C@@H](O)[C@H](O)[C@H]4O)[C@@H]2CC[C@]1(O[C@@H]1O[C@H](CO)[C@@H](O)[C@H](O)[C@H]1O)C3 [Rubusoside, rubusoside]
cytotoxicity ([1]; OVCAR-3 cells, any concentration tested up to 15 μM, 72 hours): no cytotoxicity
cytotoxicity ([2]; any concentration tested up to 15 μM): no cytotoxicity
clinical signs of toxicity [7]: did not cause any clinical signs of toxicity
Accepted Daily Intake (ADI), roughly comparable amount [8]: 8 to 12 mg/kg/day
no-observed-effect level (NOEL) [9]: 760 mg/kg/day

COC[C@@H]([C@H](O)[C@H](O)C(=O)NCC[C@H](C)c1nc(/C=C/C[C@@H]2O[C@]3(C[C@@H](O)[C@@H]2C)O[C@H]([C@H](C[C@H](O)[C@H](C)[C@H](O)[C@H](C)/C=C(C)/C(C)=C/C=C/C(C)=C\C#N)OC)[C@H](OP(=O)(O)O)C3(C)C)co1)N(C)C [calyculin A]
effect on PP1 activation by MBO-asGCS and C6-Cer [4]: abolished these effects
